From ChEMBL document CHEMBL5338769, “Discovery of Norisoboldine Analogue III11 as a Novel and Potent Aryl Hydrocarbon Receptor Agonist for the Treatment of Ulcerative Colitis” (J Med Chem, 2023) come the findings set out here.

Data set [1] concerns the target T1, Aryl hydrocarbon receptor (Mus musculus, UniProt P30561).
T1 sequence (P30561 whole entry): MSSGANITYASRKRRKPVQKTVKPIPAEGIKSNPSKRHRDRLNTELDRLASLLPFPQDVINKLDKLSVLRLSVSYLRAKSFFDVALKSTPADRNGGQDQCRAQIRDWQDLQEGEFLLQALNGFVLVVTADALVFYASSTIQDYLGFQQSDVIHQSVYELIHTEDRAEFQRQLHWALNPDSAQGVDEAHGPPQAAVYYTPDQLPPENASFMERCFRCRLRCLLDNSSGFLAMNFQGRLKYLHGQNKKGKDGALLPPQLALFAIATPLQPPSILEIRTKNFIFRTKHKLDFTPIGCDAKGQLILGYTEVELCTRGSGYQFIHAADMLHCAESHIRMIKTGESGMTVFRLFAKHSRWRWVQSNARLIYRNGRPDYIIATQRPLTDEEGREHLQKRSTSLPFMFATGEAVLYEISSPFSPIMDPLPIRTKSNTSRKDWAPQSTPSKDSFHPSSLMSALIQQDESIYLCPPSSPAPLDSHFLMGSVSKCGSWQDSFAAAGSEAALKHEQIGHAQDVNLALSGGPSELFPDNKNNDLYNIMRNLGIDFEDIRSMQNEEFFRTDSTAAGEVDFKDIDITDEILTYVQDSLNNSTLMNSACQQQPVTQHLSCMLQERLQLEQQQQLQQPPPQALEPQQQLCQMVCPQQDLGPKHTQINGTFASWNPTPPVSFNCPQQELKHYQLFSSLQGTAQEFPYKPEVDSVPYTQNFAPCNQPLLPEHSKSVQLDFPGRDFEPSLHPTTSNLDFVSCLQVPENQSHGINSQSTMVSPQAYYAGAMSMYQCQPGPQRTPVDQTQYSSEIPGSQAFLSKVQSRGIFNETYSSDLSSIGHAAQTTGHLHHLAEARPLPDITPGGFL
The data set can be described thus: Activation of AhR transcription in C57BL/6 mouse naive T cells assessed as increase in CYP1B1 mRNA expression at 1 to 3 uM by qRT-PCR analysis. The data set is classed as cell-based. As to conditions: t cell, dose 1-3 µM. A general note: Real-time PCR tracks product formation cycle by cycle.

Data set [2] can be described thus: Unbound drug concentration in rat plasma at 21.67 ug/ml of total concentration measured after 12 hrs by ultrafiltration based HPLC analysis. The data set is classed as ADME, cell-free. As to conditions: dose 21.67 µg/ml.
In data set [3] the test system is Mus musculus. The data set can be described thus: Anti-colitis activity against DSS-induced ulcerative colitis C57BL/6 mouse model assessed as amelioration of epithelial change score by measuring cryptitis in colon at 10 to 20 mg/kg, po administered once a day for 10 days by H&E staining based histopathological analysis. In kind it is functional, organism-based. As to conditions: dose 10-20 mg/kg, time 10.0 day.

Data set [4] deals with Mus musculus. Put plainly: Anti-colitis activity against DSS-induced ulcerative colitis C57BL/6 mouse model assessed as amelioration of epithelial change score by measuring hyperplasia in colon at 10 to 20 mg/kg, po administered once a day for 10 days by H&E staining based histopathological analysis. The data set is classed as functional, organism-based. As to conditions: dose 10-20 mg/kg, time 10.0 day.

Data set [5] concerns Mus musculus. The data set can be described thus: Anti-colitis activity against DSS-induced ulcerative colitis C57BL/6 mouse model assessed as recovery of colon length at 20 mg/kg, po administered once a day for 10 days. In kind it is functional, organism-based. As to conditions: time 10.0 day.
Data set [6] concerns Mus musculus. The data set can be described thus: Anti-colitis activity against DSS-induced ulcerative colitis C57BL/6 mouse model assessed as amelioration of inflammation severity in colon at 10 to 20 mg/kg, po administered once a day for 10 days by H&E staining based histopathological analysis. In kind it is functional, organism-based. As to conditions: dose 10-20 mg/kg, time 10.0 day.

Data set [7] concerns Mus musculus. Put plainly: Anti-colitis activity against DSS-induced ulcerative colitis C57BL/6 mouse model assessed as increase in IL-10 mRNA level by measuring fold change at 10 mg/kg, po administered once a day for 10 days by qRT-PCR analysis. The data set is classed as functional. As to conditions: time 10 day.
Data set [8] in a line: Apparent oral clearance in Sprague-Dawley rat at 30 mg/kg measured upto 1440 min by LC-MS/MS analysis. The data set is classed as ADME, organism-based. As to conditions: in vivo, 24 h.
A short description of data set [9]: Tmax in Sprague-Dawley rat at 30 mg/kg, po measured upto 1440 min by LC-MS/MS analysis. The data set is classed as ADME, organism-based. As to conditions: in vivo.
Data set [10] can be described thus: Induction of cell differentiation in C57BL/6 mouse naive regulatory T cells assessed as increase in cell frequency at 3 uM incubated for 72 hrs by flow cytometric analysis (reference value: 24.9%). The data set is classed as functional. (A flow cytometer gives signals particle by particle.)
Data set [11] is described as follows: Induction of cell differentiation in C57BL/6 mouse naive regulatory T cells assessed as increase in […] mRNA level by measuring fold change at 3 uM incubated for 72 hrs by qRT-PCR analysis. In kind it is functional.
Data set [12] deals with Mus musculus. Put plainly: Anti-colitis activity against DSS-induced ulcerative colitis C57BL/6 mouse model assessed as amelioration of mucosal architecture score by measuring granulation in colon at 10 to 20 mg/kg, po administered once a day for 10 days by H&E staining based histopathological analysis. The data set is classed as functional, organism-based. As to conditions: dose 10-20 mg/kg, time 10.0 day.

Data set [13] is described as follows: Protein binding in rat plasma at 10.74 ug/ml of total concentration measured after 12 hrs by ultrafiltration based HPLC analysis. The data set is classed as ADME, cell-free. As to conditions: at 10.74 µg/mL, read-out: PPB (converted).
Another data set has as its system Regulatory T cell. Put plainly: Induction of cell differentiation in C57BL/6 mouse naive regulatory T cells at 1 uM incubated for 72 hrs by flow cytometric analysis. In kind it is functional, cell-based.
The test system of data set [14] is Mus musculus. The data set can be described thus: In vivo activation of AhR in C57BL/6 mouse assessed as increase in CYP1A1 mRNA expression at 10 to 20 mg/kg, po administered once a day for 10 days by qRT-PCR analysis. In kind it is functional, organism-based. As to conditions: dose 10-20 mg/kg, time 10.0 day.
In data set [15] the target is T1, Aryl hydrocarbon receptor. Put plainly: Induction of AhR nuclear translocation in C57BL/6 mouse naive T cells at 1 to 10 uM incubated for 48 hrs by immunofluorescence based inverted microscopic analysis. As to conditions: t cell, dose 1-10 µM.
The subject of data set [16] is Mus musculus. The data set can be described thus: Anti-colitis activity against DSS-induced ulcerative colitis C57BL/6 mouse model assessed as increase in IL-10 mRNA level at 20 mg/kg, po administered once a day for 10 days by qRT-PCR analysis. In kind it is functional, organism-based. As to conditions: time 10.0 day.
Data set [17] can be described thus: Unbound drug concentration in rat plasma at 10.74 ug/ml of total concentration measured after 12 hrs by ultrafiltration based HPLC analysis. In kind it is ADME, cell-free. As to conditions: dose 10.74 µg/ml.
The subject of data set [18] is Mus musculus. The data set can be described thus: Anti-colitis activity against DSS-induced ulcerative colitis C57BL/6 mouse model assessed as amelioration of epithelial change score by measuring crypt abscesses in colon at 10 to 20 mg/kg, po administered once a day for 10 days by H&E staining based histopathological analysis. In kind it is functional, organism-based. As to conditions: dose 10-20 mg/kg, time 10.0 day.

For data set [19], the system named is Mus musculus. The data set can be described thus: Anti-colitis activity in DSS-induced ulcerative colitis C57BL/6 mouse model assessed as CD4+CD25+Foxp3+ Treg cell percentage in spleen at 20 mg/kg, po administered once a day for 10 days by flow cytometric analysis (reference value: 3.3%). The data set is classed as functional. As to conditions: time 10 day.

Data set [20] has as its system Mus musculus. The data set can be described thus: Anti-colitis activity against DSS-induced ulcerative colitis C57BL/6 mouse model assessed as decrease in disease activity index score at 20 mg/kg, po administered once a day for 10 days. The data set is classed as functional, organism-based. As to conditions: time 10.0 day.
Data set [21] has as its system Mus musculus. Put plainly: Anti-colitis activity against DSS-induced ulcerative colitis C57BL/6 mouse model assessed as amelioration of epithelial change score by measuring erosion in colon at 10 to 20 mg/kg, po administered once a day for 10 days by H&E staining based histopathological analysis. In kind it is functional, organism-based. As to conditions: dose 10-20 mg/kg, time 10.0 day.

The test system of data set [22] is Mus musculus. Put plainly: Anti-colitis activity in DSS-induced ulcerative colitis C57BL/6 mouse model assessed as decrease in IL-17 expression at 20 mg/kg, po administered once a day for 10 days by qRT-PCR analysis. In kind it is functional. Further details: scale not given: the % may be the effect or the level left. As to conditions: time 10 day.

Active and inactive are the calls of the source. The rule behind the calls is not given here.

In general, Tmax refers to the time from dosing to the highest level. `COc1cc2c3c(c1)-c1ccc(O)cc1CC3NCC2` (stereo not drawn): the Activity result is “Active” in data set [1]; 35.4% in data set [10]; “Active” in [15]; 4% with Mus musculus [19]; 86.96% in the data set on Mus musculus [22]. Further, the “Cp(f)” value in data set [2] was 3230 ng/mL; in data set [17] it was 1440 ng/mL. Besides, the outcome in the data set with Mus musculus [3], in the data set on Mus musculus [4], in the data set on Mus musculus [5], with Mus musculus [6], in the data set on Mus musculus [12] and in the data set on Regulatory T cell was Active. In addition, the outcome in the data set on Mus musculus [14], in the data set on Mus musculus [16], in the data set on Mus musculus [18], in the data set on Mus musculus [20] and with Mus musculus [21] was Active. For the same compound, the “fold change (FC)” value in the data set on Mus musculus [7] is listed as 1.26; in [11] it was 1.4. For the same compound, in data set [8], the CL/F is 0 mg/(ng/ml)/min. Further, in data set [9], the Tmax is 2 h. Moreover, the fraction unbound at 12 h, 10.74 ug/ml in [13] was 0.134.
